The assay is described as follows: APP processing: AlphaLisa assay of secreted Aβ40 and Aβ42 from SP4CT cells. The format is cell-based. To be noted: Homo sapiens, SH-SY5Y cells expressing amyloid β protein (SP4CT cells). Here is the method:
APP Processing (Assay Quantitates Secreted Aβ Analytes from Cell Lines):
The effect of compounds on the abundance of Aβ40 and Aβ42 peptides generated from SH-SY5Y cells expressing amyloid β protein (SP4CT cells) are determined by an AlphaLisa™ assay. Analogous to an ELISA assay, generation of […] AlphaLisa™ assay requires “donor” and “acceptor” beads to be brought in close proximity by specific antibody recognition of either Aβ40 or Aβ42 peptides. The assay is accomplished by removing media from compound-treated SP4CT cells to two different microplates, followed by the addition of donor beads conjugated with streptavidin binding a biotinylated anti-amyloid β monocolonal antibody (clone 4G8). Acceptor beads directly conjugated with anti-Aβ40 monoclonal antibody (G210) are added to one microplate and anti-Aβ42 monoclonal antibody (12F4) acceptor beads were added to the other. Abundance of Aβ40 and Aβ42 is directly proportional to the luminescent signal generated following excitation of donor beads by laser light.

[1] abbreviates: read-out: IC50, inhibition of production of Aβ40 peptide.
Setting [2] is: read-out: IC50, inhibition of production of Aβ42 peptide.

Read-outs that look alike come from different tables or passages of the source.

With `CCn1nc(-c2cccc(C(C)(C)NS(=O)(=O)CC(F)(F)F)c2)cc1Oc1ccc(CNCc2ccccn2)cc1` [Example 77, N-(1-{3-[1-ethyl-5-(4-{[(pyridin-2-ylmethyl)amino]methyl}phenoxy)-1H-pyrazol-3-yl]phenyl}-1-methylethyl)-2,2,2-trifluoroethanesulfonamide], the IC50 is, setting by setting: under setting [1], less than 200 nM; under setting [2], less than 200 nM.

Regarding `CCn1nc(-c2cccc(C(C)(C)NS(=O)(=O)CC(F)(F)F)c2)cc1Oc1ccc(C(F)(F)F)cc1` [Example 1, N-[1-(3-{1-ethyl-5-[4-(trifluoromethyl)phenoxy]-1H-pyrazol-3-yl}phenyl)-1-methylethyl]-2,2,2-trifluoroethanesulfonamide], the IC50 runs as follows: under setting [1], less than 200 nM; under setting [2], less than 200 nM.

Regarding `CCn1nc(-c2cccc(C(C)(C)NS(=O)(=O)CC(F)(F)F)c2)cc1Oc1ccc(CNc2ccc(OC)cc2)cc1` [Example 82], the IC50 reads like this: under setting [1], less than 200 nM; under setting [2], less than 200 nM.

On to `CCn1nc(-c2cccc(C(C)(C)NS(=O)(=O)CC(F)(F)F)c2)cc1Oc1ccc(CNCc2cccs2)cc1` [Example 88, N-(1-{3-[1-ethyl-5-(4-{[(2-thienylmethyl)amino]methyl}phenoxy)-1H-pyrazol-3-yl]phenyl}-1-methylethyl)-2,2,2-trifluoroethanesulfonamide], for which the IC50 runs as follows: under setting [1], less than 200 nM; under setting [2], less than 200 nM.

As to `CCn1nc(-c2cccc(C3(NS(=O)(=O)NC)CC3)c2)cc1Oc1ccc(C(F)(F)F)cn1` [Example 45, N-{1-[3-(1-ethyl-5-{[5-(trifluoromethyl)pyridin-2-yl]oxy}-1H-pyrazol-3-yl)phenyl]cyclopropyl}-N′-methylsulfamide], the IC50 was less than 200 nM under setting [1] and less than 200 nM under setting [2].

As to `O=S(=O)(CC(F)(F)F)NC1(c2cccc(-c3cc(Oc4ccc(C(F)(F)F)cc4)n(Cc4cocn4)n3)c2)COC1` [Example 134, N-(3-{3-[5-(4-trifluoromethylphenoxy)-1-(1,3-oxazol-4-ylmethyl)-1H-pyrazol-3-yl]phenyl}oxetan-3-yl)-2,2,2-trifluoroethanesulfonamide], the IC50 is, setting by setting: under setting [1], less than 200 nM; under setting [2], less than 200 nM.

Regarding `Cn1nc(-c2cccc(C3(NS(=O)(=O)CC(F)(F)F)CC3)c2)cc1Oc1ccc(C(F)(F)F)cc1` [Example 106, 2,2,2-trifluoro-N-[1-(3-{1-methyl-5-[4-(trifluoromethyl)phenoxy]-1H-pyrazol-3-yl}phenyl)cyclopropyl]ethanesulfonamide], the IC50 reads like this: under setting [1], less than 200 nM; under setting [2], less than 200 nM.

`CCn1nc(Oc2ccc(Cl)nc2)cc1-c1cccc(C(C)(C)NS(=O)(=O)CC(F)(F)F)c1` [Example 22, N-[1-(3-{3-[(6-chloropyridin-3-yl)oxy]-1-ethyl-1H-pyrazol-5-yl]phenyl)-1-methylethyl]-2,2,2-trifluoroethanesulfonamide]: the IC50 by setting is: under setting [1], less than 200 nM; under setting [2], less than 200 nM.

Turning to `Cc1cc(Cn2nc(-c3cccc(C4(NS(=O)(=O)CC(F)(F)F)COC4)c3)cc2Oc2ccc(C(F)(F)F)cc2)on1` [Example 137, N-(3-{3-[5-(4-trifluoromethylphenoxy)-1-(5-methyl-1,2-isoxazol-3-ylmethyl)-1H-pyrazol-3-yl]phenyl}oxetan-3-yl)-2,2,2-trifluoroethanesulfonamide], the IC50 was less than 200 nM under setting [1] and less than 200 nM under setting [2].

With `CCn1nc(-c2cccc(C3(NS(=O)(=O)CC(F)(F)F)CC3)c2)cc1Oc1ccc(C(F)(F)F)cc1` [Example 28, N-[1-(3-{1-ethyl-5-[4-(trifluoromethyl)phenoxy]-1H-pyrazol-3-yl}phenyl)cyclopropyl]-2,2,2-trifluoroethanesulfonamide], the IC50 was less than 200 nM under setting [1] and less than 200 nM under setting [2].

Turning to `CCn1nc(-c2cccc(C(C)(C)NS(=O)(=O)CC(F)(F)F)c2)cc1Oc1ccc(CN2CCC3(CC2)OCCO3)cc1` [Example 87, N-[1-(3-{5-[4-(1,4-dioxa-8-azaspiro[4.5]dec-8-ylmethyl)phenoxy]-1-ethyl-1H-pyrazol-3-yl}phenyl)-1-methylethyl]-2,2,2-trifluoroethanesulfonamide], the IC50 reads like this: under setting [1], less than 200 nM; under setting [2], less than 200 nM.

For the molecule `CCn1nc(-c2cccc(C3(NS(=O)(=O)NC4CCCC4)CC3)c2)cc1Oc1ccc(C(F)(F)F)cc1` [Example 35, N-cyclopentyl-N′-[1-(3-{1-ethyl-5-[4-(trifluoromethyl)phenoxy]-1H-pyrazol-3-yl}phenyl)cyclopropyl] sulfamide], the IC50 reads like this: under setting [1], less than 200 nM; under setting [2], less than 200 nM.

`CCn1nc(-c2cccc(C(C)(C)NS(=O)(=O)CC(F)(F)F)c2)c(C#Cc2ccccc2)c1Oc1ccc(C(F)(F)F)cc1` [Example 119, N-[2-(3-{1-ethyl-4-(phenylethynyl)-5-[4-(trifluoromethyl)phenoxy]-1H-pyrazol-3-yl}phenyl)propan-2-yl]-2,2,2-trifluoroethanesulfonamide]: the half-maximal inhibitory concentration (IC50) reads like this: under setting [1], less than 200 nM; under setting [2], less than 200 nM.

Take `CCn1nc(-c2cccc(C(C)(C)NS(=O)(=O)CC(F)(F)F)c2)cc1Oc1ccc(CN2CCOCC2)cc1` [Example 78, N-[1-(3-{1-ethyl-5-[4-(morpholin-4-ylmethyl)phenoxy]-1H-pyrazol-3-yl}phenyl)-1-methylethyl]-2,2,2-trifluoroethanesulfonamide]: the IC50 is less than 200 nM under setting [1] and less than 200 nM under setting [2].

On to `CCn1nc(-c2cccc(C3(NS(=O)(=O)CC(F)(F)F)CC3)c2)c(Cl)c1Oc1ccc(C(F)(F)F)cc1` [Example 111, N-[1-(3-{4-chloro-1-ethyl-5-[4-(trifluoromethyl)phenoxy]-1H-pyrazol-3-yl}phenyl)cyclopropyl]-2,2,2-trifluoroethanesulfonamide], for which the IC50 reads like this: under setting [1], less than 200 nM; under setting [2], less than 200 nM.

On to `CCn1nc(-c2cccc(C(C)(C)NS(=O)(=O)CC(F)(F)F)c2)cc1Oc1ccc(C(C)C)cc1` [Example 58, N-(1-{3-[1-ethyl-5-(4-isopropylphenoxy)-1H-pyrazol-3-yl]phenyl}-1-methylethyl)-2,2,2-trifluoroethanesulfonamide], for which the IC50 was less than 200 nM under setting [1] and less than 200 nM under setting [2].

With `CCn1nc(-c2cccc(C(C)(C)NS(=O)(=O)CC(F)(F)F)c2)cc1Oc1ccccc1` [Example 57, N-{1-[3-(1-ethyl-5-phenoxy-1H-pyrazol-3-yl)phenyl]-1-methylethyl}-2,2,2-trifluoroethanesulfonamide], the IC50 is, setting by setting: under setting [1], less than 200 nM; under setting [2], less than 200 nM.

For the molecule `CCn1nc(-c2cccc(C(C)(C)NS(=O)(=O)CC(F)(F)F)c2)cc1Oc1ccc(CO)cc1` [Example 62, N-[1-(3-{1-ethyl-5-[4-(hydroxymethyl)phenoxy]-1H-pyrazol-3-yl}phenyl)-1-methylethyl]-2,2,2-trifluoroethanesulfonamide], the IC50 under setting [1] is less than 200 nM and the IC50 under setting [2] is less than 200 nM.

`CCn1nc(-c2cccc(C3(NS(=O)(=O)CC(F)(F)F)COC3)c2)cc1Oc1ccc(C#N)cc1` [Example 128]: the IC50 under setting [1] was less than 200 nM and the IC50 under setting [2] was less than 200 nM.

Regarding `CCn1nc(-c2cccc(C(C)(C)NS(=O)(=O)NC)c2)cc1Oc1ccc(C(F)(F)F)cc1` [Example 10, N-[1-(3-{1-ethyl-5-[4-(trifluoromethyl)phenoxy]-1H-pyrazol-3-yl}phenyl)-1-methylethyl]-N′-methylsulfamide], the IC50 under setting [1] was less than 200 nM and the IC50 under setting [2] was less than 200 nM.

Regarding `CCn1nc(Oc2ccc(C(F)(F)F)cc2)cc1-c1cccc(C(C)(C)NS(=O)(=O)N2CCCCC2)c1` [Example 27, N-[1-(3-{1-ethyl-3-[4-(trifluoromethyl)phenoxy]-1H-pyrazol-5-yl}phenyl)-1 methylethyl]piperidine-1-sulfonamide], the IC50 is less than 200 nM under setting [1] and less than 200 nM under setting [2].

As for `CCn1nc(-c2cccc(C(C)(C)NS(=O)(=O)CC(F)(F)F)c2)cc1Oc1ccc(C(=O)NCC2CCCO2)cc1` (centres unmarked) [Example 74, 4-({1-ethyl-3-[3-(1-methyl-1-{[(2,2,2-trifluoroethyl)sulfonyl]amino}ethyl)phenyl]-1H-pyrazol-5-yl}oxy)-N-(tetrahydrofuran-2-ylmethyl)benzamide], the IC50 is less than 200 nM under setting [1] and less than 200 nM under setting [2].

Regarding `CCCNS(=O)(=O)NC1Cc2ccc(-c3cc(Oc4ccc(C(F)(F)F)cc4)nn3CC)cc2C1` (centres unmarked) [Example 123, N-(5-{1-ethyl-3-[4-(trifluoromethyl)phenoxy]-1H-pyrazol-5-yl}-2,3-dihydro-1H-inden-2-yl)-N′-propylsulfamide], the IC50 by setting is: under setting [1], less than 200 nM; under setting [2], less than 200 nM.

As for `CCn1nc(Oc2ccc(C(F)(F)F)cc2)cc1-c1cccc(C(C)(C)NS(=O)(=O)N(C)C)c1` [Example 25, N′-[1-(3-{1-ethyl-3-[4-(trifluoromethyl)phenoxy]-1H-pyrazol-5-yl}phenyl)-1-methylethyl]-N,N-dimethylsulfamide], the IC50 was less than 200 nM under setting [1] and less than 200 nM under setting [2].

For the molecule `CCn1nc(-c2cccc(C(C)(C)NS(=O)(=O)CC(F)(F)F)c2)cc1Oc1ccc(CNc2ccon2)cc1` [Example 83, N-{1-[3-(1-ethyl-5-{4-[(isoxazol-3-ylamino)methyl]phenoxy}-1H-pyrazol-3-yl)phenyl]-1-methylethyl}-2,2,2-trifluoroethanesulfonamide], the IC50 by setting is: under setting [1], less than 200 nM; under setting [2], less than 200 nM.
